In patent publication US7807676B2, “Diketo-Piperazine and Piperidine derivatives as antiviral agents” (priority 2006, dated 2010):
pEC50: −log10 of the molar value.

tested on: HIV-1 single-round infectious reporter virus; assay: Single-round infectious HIV-1 luciferase reporter virus infection of HeLa CD4 cells (antiviral EC50); assay type: cell-based; details: Human immunodeficiency virus 1, HeLa, read-out: EC50 Group from Table 3
Outline: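 Compound (≤10 μM final, 10 concentrations) was added to HeLa CD4 cells together with luciferase-reporter HIV-1 pseudovirus (nef replaced by luciferase, envelope supplied in trans) at MOI ~0.01. Cells were lysed 72 h post-infection at 37 °C for luminescence; percent inhibition versus untreated infection, fitted four-parameter logistic for EC50.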

**Q.** With COc1cnc(-n2cnc(C)n2)c2[nH]cc(C(=O)C(=O)N3CCN(c4ncnn4-c4ccccc4)CC3)c12 [G-27b] as the compound, how does the pEC50 read?
**A.** Its pEC50 is > 6.30.

**Q.** CS(=O)(=O)c1nc(N2CCN(C(=O)C(=O)c3c[nH]c4c(-n5ccnn5)ncc(F)c34)CC2)n(-c2ccccc2)n1 [G-28a] was tested. Which pEC50 did it give?
**A.** Its pEC50 is > 6.30.

**Q.** COc1cnc(-n2cnc(C)n2)c2[nH]cc(C(=O)C(=O)N3CCN(c4nc(S(C)(=O)=O)nn4-c4ccccc4)CC3)c12 [G-28b] was tested. Which pEC50 did it give?
**A.** The pEC50 was > 6.30.

**Q.** With COc1nc(N2CCN(C(=O)C(=O)c3c[nH]c4c(-n5ccnn5)ncc(F)c34)CC2)n(-c2ccccc2)n1 [G-29a] as the compound, how does the pEC50 read?
**A.** Its pEC50 is > 6.30.

**Q.** How did the pEC50 turn out when COc1nc(N2CCN(C(=O)C(=O)c3c[nH]c4c(-n5cnc(C)n5)ncc(OC)c34)CC2)n(-c2ccccc2)n1 [G-29b] was run?
**A.** The pEC50 was > 6.30.

**Q.** How did the pEC50 turn out when O=C(C(=O)N1CCN(c2cnnn2-c2ccccc2)CC1)c1c[nH]c2c(-n3ccnn3)ncc(F)c12 [G-30a] was run?
**A.** Its pEC50 is > 6.30.

**Q.** How did the pEC50 turn out when COc1cnc(-n2cnc(C)n2)c2[nH]cc(C(=O)C(=O)N3CCN(c4cnnn4-c4ccccc4)CC3)c12 [G-30b] was run?
**A.** Its pEC50 is > 6.30.

**Q.** How did the pEC50 turn out when COc1cnc(-n2cc(C)nn2)c2[nH]cc(C(=O)C(=O)N3CCN(c4nnnn4-c4ccccn4)CC3)c12 [G-31] was run?
**A.** The pEC50 was > 6.30.

**Q.** How did the pEC50 turn out when Cc1nc(N2CCN(C(=O)C(=O)c3c[nH]c4c(-n5ccnn5)ncc(F)c34)CC2)n(-c2ccccc2)n1 [G-32] was run?
**A.** Its pEC50 is > 6.30.

**Q.** COc1cnc(-c2cncc(F)c2)c2[nH]cc(C(=O)C(=O)N3CCN(c4nnnn4-c4ccccn4)CC3)c12 [H-1] was tested. Which pEC50 did it give?
**A.** Its pEC50 is > 6.30.

**Q.** How did the pEC50 turn out when COc1cnc(-c2cccnc2F)c2[nH]cc(C(=O)C(=O)N3CCN(c4nnnn4-c4ccccn4)CC3)c12 [H-2] was run?
**A.** The pEC50 was > 6.30.

**Q.** With COc1cnc(-c2cccnc2)c2[nH]cc(C(=O)C(=O)N3CCN(c4nnnn4-c4ccccn4)CC3)c12 [H-3] as the compound, how does the pEC50 read?
**A.** The pEC50 was > 6.30.

**Q.** How did the pEC50 turn out when COc1cnc(-c2cccnc2Cl)c2[nH]cc(C(=O)C(=O)N3CCN(c4nnnn4-c4ccccn4)CC3)c12 [H-4] was run?
**A.** Its pEC50 is > 6.30.

**Q.** With COc1cnccc1-c1ncc(OC)c2c(C(=O)C(=O)N3CCN(c4nnnn4-c4ccccn4)CC3)c[nH]c12 [H-5] as the compound, how does the pEC50 read?
**A.** The pEC50 was > 6.30.

**Q.** How did the pEC50 turn out when COc1ccncc1-c1ncc(OC)c2c(C(=O)C(=O)N3CCN(c4nnnn4-c4ccccn4)CC3)c[nH]c12 [H-6] was run?
**A.** The pEC50 was > 6.30.

**Q.** COc1cnc(-c2cnccc2C)c2[nH]cc(C(=O)C(=O)N3CCN(c4nnnn4-c4ccccn4)CC3)c12 [H-7] was tested. Which pEC50 did it give?
**A.** Its pEC50 is > 6.30.

**Q.** COc1cnc(-c2ccnc(F)c2)c2[nH]cc(C(=O)C(=O)N3CCN(c4nnnn4-c4ccccn4)CC3)c12 [H-8] was tested. Which pEC50 did it give?
**A.** The pEC50 was > 6.30.

**Q.** COc1cnc(-c2ccc(N)nc2)c2[nH]cc(C(=O)C(=O)N3CCN(c4nnnn4-c4ccccn4)CC3)c12 [H-9] was tested. Which pEC50 did it give?
**A.** Its pEC50 is > 6.30.

**Q.** COc1ccc(-c2ncc(OC)c3c(C(=O)C(=O)N4CCN(c5nnnn5-c5ccccn5)CC4)c[nH]c23)cn1 [H-10] was tested. Which pEC50 did it give?
**A.** The pEC50 was > 6.30.

**Q.** With COc1cnc(-c2ccc(C#N)nc2)c2[nH]cc(C(=O)C(=O)N3CCN(c4nnnn4-c4ccccn4)CC3)c12 [H-11] as the compound, how does the pEC50 read?
**A.** The pEC50 was > 6.30.

**Q.** With COc1cnc(-c2ccnc(C)c2)c2[nH]cc(C(=O)C(=O)N3CCN(c4nnnn4-c4ccccn4)CC3)c12 [H-12] as the compound, how does the pEC50 read?
**A.** Its pEC50 is > 6.30.

**Q.** With COc1cnc(-c2ccc(F)nc2)c2[nH]cc(C(=O)C(=O)N3CCN(c4nnnn4-c4ccccn4)CC3)c12 [H-13] as the compound, how does the pEC50 read?
**A.** Its pEC50 is > 6.30.
